Structures are written as SMILES.

The IC50 is the midpoint of a concentration-inhibition curve.

For this assay, the target named is T1, human neutrophil elastase (HNE) (Homo sapiens, UniProt P08246).
T1 construct: purchased Sigma E8140
T1 sequence (P08246 30-267): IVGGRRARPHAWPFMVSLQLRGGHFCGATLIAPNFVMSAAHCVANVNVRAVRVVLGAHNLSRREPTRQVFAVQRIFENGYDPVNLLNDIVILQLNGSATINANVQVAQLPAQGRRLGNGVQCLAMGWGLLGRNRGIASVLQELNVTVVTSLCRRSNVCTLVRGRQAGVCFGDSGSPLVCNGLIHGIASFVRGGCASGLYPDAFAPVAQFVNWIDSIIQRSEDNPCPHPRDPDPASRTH
The assay is described as follows: HNE enzyme assay (human neutrophil elastase enzyme activity, fluorogenic peptide substrate). Format: biochemical. Particulars: human leukocyte elastase 0.00072 U/mL; MeOSuc-Ala-Ala-Pro-Val-AMC 100 μM; 25° C., 30 minutes; at least two separate experiments; read-out: HNE inhibition (IC50 values). On the procedure: Compounds of this invention were tested for potency in a human neutrophil elastase (HNE) enzyme activity assay.
Assays were performed in 96-well plates in a total assay volume of 100 μL. The final concentration of elastase enzyme (human leukocyte elastase, Sigma E8140) was 0.00072 U/mL. The peptide substrate (MeOSuc-Ala-Ala-Pro-Val-AMC, Calbiochem #324740) was used at a final concentration of 100 μM. The final concentration of DMSO was 1% in the assay buffer (0.05M Tris.HCl, 0.1M NaCl, 0.1M CaCl2, 0.0005% brij-35, pH 7.5). The enzymatic reaction was started by addition of the enzyme and incubated at 25° C. for 30 minutes. After incubation, the reaction was stopped by addition of soybean trypsin inhibitor (Sigma T9003) at a final concentration of 50 μg/well. Fluorescence was measured using a Molecular Devices fluorescence plate reader using 380 nm excitation and 460 nm emission wavelengths.
A dose response to each compound was performed and the effect of the compound in each experiment was expressed as a percentage inhibition of the control enzyme fluorescence. Dose response curves were plotted and compound potency (IC50) was determined. Compounds were tested in at least two separate experiments.
As to `COC(=O)C1=C(C)N(c2cccc(C(F)(F)F)c2)c2n[nH]c(=O)n2[C@H]1c1ccc(C#N)cc1OC` (racemic) [Example 33b], the IC50 is 20 to 100 nM.

On to `CC1=C(C#N)[C@@H](c2ccc(C#N)cc2C(O)CO)n2c(n[nH]c2=O)N1c1cccc(C(F)F)c1` (mixture of isomers) [Example 39d, (R) and (S)-5-[4-Cyano-2-(1,2-dihydroxy-ethyl)-phenyl]-8-(3-difluoromethyl-phenyl)-7-methyl-3-oxo-2,3,5,8-tetrahydro-[1,2,4]triazolo[4,3-a]pyrimidine-6-carbonitrile], for which the IC50 was 20 to 100 nM.

As for `COCCOc1cc(C#N)ccc1[C@@H]1C(C(=O)OC)=C(C)N(c2cccc(C(F)(F)F)c2)c2n[nH]c(=O)n21` (single isomer, unassigned) [Example 34a], the IC50 is < 20 nM.

Regarding `COCCOc1cc(C#N)ccc1[C@@H]1C(C(=O)OC)=C(C)N(c2cccc(C(F)(F)F)c2)c2n[nH]c(=O)n21` (single isomer, unassigned) [Example 34b], the IC50 is 20 to 100 nM.

As for `CC1=C(C#N)[C@@H](c2ccc(C#N)cc2C(O)CO)n2c(n[nH]c2=O)N1c1cccc(C(F)(F)F)c1` (single isomer, unassigned) [Example 35a], the IC50 was < 20 nM.

As for `CC1=C(C#N)[C@@H](c2ccc(C#N)cc2CCO)n2c(n[nH]c2=O)N1c1cccc(C(F)F)c1` (single isomer, unassigned) [Example 38a], the IC50 was < 20 nM.

`CC1=C(C#N)[C@@H](c2ccc(C#N)cc2CCO)n2c(n[nH]c2=O)N1c1cccc(C(F)F)c1` (single isomer, unassigned) [Example 38b]: the IC50 lay within 100 to 500 nM.

`CC1=C(C#N)[C@@H](c2ccc(C#N)cc2C(O)CO)n2c(n[nH]c2=O)N1c1cccc(C(F)F)c1` (single isomer, unassigned) [Example 39a]: the IC50 was < 20 nM.

As for `CC1=C(C#N)C(c2ccc(C#N)cc2C(O)CO)n2c(n[nH]c2=O)N1c1cccc(C(F)F)c1` (single isomer, unassigned) [Example 39b], the IC50 fell in the range of 100 to 500 nM.

For the molecule `CC1=C(C#N)[C@@H](c2ccc(C#N)cc2CCO)n2c(n[nH]c2=O)N1c1cccc(C(F)(F)F)c1` [Example 36, (R)-5-[4-Cyano-2-(2-hydroxy-ethyl)-phenyl]-7-methyl-3-oxo-8-(3-trifluoromethyl-phenyl)-2,3,5,8-tetrahydro-[1,2,4]triazolo[4,3-a]pyrimidine-6-carbonitrile], the IC50 is < 20 nM.

Turning to `CC1=C(C#N)[C@@H](c2ccc(C#N)cc2CCS(C)(=O)=O)n2c(n[nH]c2=O)N1c1cccc(C(F)(F)F)c1` [Example 37, (R)-5-[4-Cyano-2-(2-methanesulfonyl-ethyl)-phenyl]-7-methyl-3-oxo-8-(3-trifluoromethyl-phenyl)-2,3,5,8-tetrahydro-[1,2,4]triazolo[4,3-a]pyrimidine-6-carbonitrile], the IC50 is < 20 nM.

Source of the values: patent US9487528B2 (CHIESI FARMACEUTICI S.p.A., priority 2014, dated 2016).
